Structures can show the parent of a compound that is named as a salt. Marks after values point to notes of the source that are not given here.
Key:
5-HT2C receptor = target: T1, 5-HT2C receptor (Sus scrofa, UniProt K7GSR7); experiment: 5-HT2C receptor binding; design: species or system pig; details: choroid plexus of pigs, ligand 3H-mesulergin 1.0 nM
T1 construct: from tissue; host or cells: pig choroid plexus membrane preparation
T1 sequence (K7GSR7 1-457): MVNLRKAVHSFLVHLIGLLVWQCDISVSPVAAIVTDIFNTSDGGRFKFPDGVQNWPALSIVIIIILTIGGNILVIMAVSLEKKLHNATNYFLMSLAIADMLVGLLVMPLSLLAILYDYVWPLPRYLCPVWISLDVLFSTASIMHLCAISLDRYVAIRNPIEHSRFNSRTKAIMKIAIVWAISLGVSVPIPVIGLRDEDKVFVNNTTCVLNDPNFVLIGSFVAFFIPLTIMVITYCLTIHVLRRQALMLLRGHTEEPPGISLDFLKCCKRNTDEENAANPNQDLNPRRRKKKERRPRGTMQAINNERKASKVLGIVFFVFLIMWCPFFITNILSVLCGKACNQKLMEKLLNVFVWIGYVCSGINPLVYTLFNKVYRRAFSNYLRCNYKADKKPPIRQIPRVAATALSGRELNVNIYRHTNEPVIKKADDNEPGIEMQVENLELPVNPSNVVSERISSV
Method: (§1) Receptor bindings—with the exception of the 5-HT2C receptor binding—were determined by using cerebral region preparations of male Wistar rats weighing 120-200 g. For the preparation of 5-HT1A receptor binding frontal cortex preparations were used. The al receptor binding studies were performed from isolated frontal cortex pre-parations. For the 5-HT2C receptor binding experiments choroid plexus of pigs was used. The protein contents of membrane preparations were determined by the method of Lowry (1951).
(§2) In the course of 5-HT2C and α1 receptor binding experiments the ligands were ^3H-mesulergin (1.0 nM) and ^3H-prazosine (0.3 nM), respectively. The non-specifically binding ligands were mianserine (1 μM and prazosine (1 μM), respectively.
(§3) The IC50 value is the value of concentration where the difference between total and non-specific binding is 50% in the presence of a determined concentration of a specific ligand.

α1 receptor = α1 receptor binding experiment; details: rat isolated frontal cortex preparation, ligand 3H-prazosine 0.3 nM
Method: as §1, §2, §3

5-HT1A receptor = target: T2, 5-HT1A receptor (Rattus norvegicus, UniProt P19327); experiment: 5-HT1A receptor binding; details: rat frontal cortex preparation, ligand tritiated 8-OH-DPAT
T2 construct: from tissue; host or cells: rat frontal cortex membrane preparation
T2 sequence (P19327 1-422): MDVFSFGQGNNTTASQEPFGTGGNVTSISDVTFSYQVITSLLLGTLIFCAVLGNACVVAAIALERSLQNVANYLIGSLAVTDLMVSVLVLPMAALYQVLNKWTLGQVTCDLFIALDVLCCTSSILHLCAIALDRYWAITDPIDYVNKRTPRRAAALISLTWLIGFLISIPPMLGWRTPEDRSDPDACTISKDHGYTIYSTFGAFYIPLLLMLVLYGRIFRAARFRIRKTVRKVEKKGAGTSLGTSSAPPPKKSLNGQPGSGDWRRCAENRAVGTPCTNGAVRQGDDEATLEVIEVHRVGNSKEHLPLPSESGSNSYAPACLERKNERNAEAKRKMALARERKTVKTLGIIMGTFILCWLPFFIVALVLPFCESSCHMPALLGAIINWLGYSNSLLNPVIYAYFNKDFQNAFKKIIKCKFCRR
Method: as §1
5-HT1A receptor binding was measured according to the method of Peroutka (Peroutka, S. J.: J. Neurochem. 47, p. 529 (1986)). The ligand was tritiated 8-hydroxy-N,N-dipropyl-2-aminotetraline (8-OH-DPAT). For the determination of non-specific binding 10 μM serotonin was applied. Incubation […] volume was 250 μl. Incubation was carried out at a temperature of 25 C for 30 minutes. The reaction was terminated by the addition of 9 ml of ice-cold 50 mM TRIS-HCl (pH 7.7) buffer and quick vacuum filtration using Whatman GFIB fibreglass filtering paper. Radioactivity of the filter boards was measured by liquid scintillation spectrometry.
as §3

Male Wistar rats = experiment: Vogel's drinking conflict test; assay type: in vivo; details: ip, 0.5 h, rat, i.p. 30 min prior to test, increase in tolerated shocks, read-out: MED
Method: The anxiolytic effect of the compounds according to the invention was investigated on rats according to Vogel's drinking conflict test and elevated plus-maze test (S. Pelow, P. Chopin, S. E. File, J. Briley: Neurosci. Methods 14, p. 149 (1985)).
Male Wistar rats weighing 160-180 g were used for the experiment. The animals were deprived of drinking water for 48 hours and fasted for 24 hours prior to test. The test compounds or vehicle were administered intraperitoneally, 30 min prior to test. […] Following every 20 licks electric shocks (0.7 mA) were applied through the drinking spout during the 5 min test period. The number of punished licks were recorded. The effect of the test compounds was expressed as % increase in numbers of tolerated shocks. Minimal effective doses (MED) were determined for each compound.

Male Mongolian gerbils = experiment: Neuroprotective effect in global ischemia test (bilateral carotid occlusion); assay type: in vivo, Mongolian gerbil; details: gerbil
Method: Male Mongolian gerbils weighing 60-90 g were used as test animals. The test compounds were administered intraperitoneally at a dose of 30 mg/kg 45 min after surgery. Test substances were suspended in 0.4% methylcellulose solution. In diethylether narcosis, the right and left common carotid arteries were exposed through an anterior midline cervical incision and isolated from the vagus nerves and the surrounding tissues. Full arrest of carotid blood flow was achieved by tightening an aneurysm clip for 3 min. During surgery the body temperature of the animals was kept at the individual preoperative level (37.5±0.5° C.) with the help of a heating pad and a heating lamp.
4 days after the surgery the animals were anaesthetized with 60 mg/kg i.p nembutal (10 ml/kg) and perfused through the heart first with saline then with a fixative solution containing 0.1% glutaraldehyde, 4% paraformaldehyde and 0.2% picric acid in 0.1 M phosphate buffer (pH 7.4) for 30 min. The brain was removed from the skull and post fixed for at least 1 week at 4° C. in the same fixative solution.
Alternate coronal sections of 60 μm thickness were cut from different levels of the dorsal hippocampus by a microtome. The sections were repeatedly washed in 0.1 M phosphate buffer (pH 7.4) and stained by silver impregnation. The sections were stored twice in a preparatory solution (2% sodium hydroxide and 0.875% ammonium hydroxide solution) for 5 minutes, impregnated for 10 minutes in 0.875% ammonium hydroxide and 0.5% silver nitrate solution) and placed into a washing solution (0.5% sodium carbonate and 0.01% ammonium nitrate dissolved in a 29.1% aqueous ethanol solution) twice for 2 minutes and once for one minute. The slices were then developed in 9.9% ethanol solution containing 1.5% formaldehyde and 0.01% ammonium nitrate and fixed three times for 3 minutes in a 0.5% acetic acid solution. The stained slices were placed in 0.1M phosphate buffer (pH 7.4) and chrome gelatine, applied on plates, dehydrated and treated with xylol. The cover plates were fixed with DPX glue (Fluka).
The sections were examined under light microscopy and the overall neuronal damage in the hippocampal CA1 subfield in both hippocampi was scored on a 6-point scale: (O) undamaged, (1)—0-10%; (2)—10-30%; (3)—30-50%; (4)—50-70%; (5)—70-90%; (6)—90-100% cell loss. Group differences between drug-treated and vehicle-treated groups were statistically analysed by Mann-Whitney U-test.

Row | SMILES | melting point | IC50 (5-HT1A receptor) | also measured
1 | CCC1(CCCN2CCN(c3cccc(Cl)c3)CC2)C(=O)Nc2ccc(Cl)cc21 (centres unmarked) [Example 57, 5-Chloro-3-{3-[4-(3-chlorophenyl)-piperazin-1-yl]-propyl}-3-ethyl-1,3-dihydro-2H-indol-2-one] | 117 to 119 °C | – | IC50 (5-HT2C receptor): < 50 nM
2 | CCC1(CCCCN2CCN(c3ccccn3)CC2)C(=O)Nc2ccc(Br)cc21 (centres unmarked) [Example 59, 5-Bromo-3-ethyl-3-[4-(4-pyridin-2-yl-piperazin-1-yl)-butyl]-1,3-dihydro-2H-indol-2-one] | 114 to 115 °C | – | IC50 (α1 receptor): < 100 nM
3 | CCC1(CCCCN2CCN(c3cccc(Cl)c3)CC2)C(=O)Nc2ccccc21 (centres unmarked) [Example 60, 3-{4-[4-(3-Chlorophenyl)-piperazin-1-yl]-butyl}-3-ethyl-1,3-dihydro-2H-indol-2-one-H2O—HCl-isopropanol (1:1:1:1)] | – | – | IC50 (α1 receptor): < 100 nM
4 | CCC1(CCCCN2CCN(c3cccc(Cl)c3)CC2)C(=O)Nc2ccc(Br)cc21 (centres unmarked) [Example 61, 5-Bromo-3-{4-[4-(3-chlorophenyl)-piperazin-1-yl]-butyl}-3-ethyl-1,3-dihydro-2H-indol-2-one monooxalate] | – | > 200 nM | IC50 (5-HT2C receptor): < 100 nM
5 | CC(C)CC1(CCCCN2CCN(c3ccccn3)CC2)C(=O)Nc2ccccc21 (centres unmarked) [Example 62, 3-Isobutyl-3-[4-(4-pyridin-2-yl-piperazin-1-yl)-butyl]-1,3-dihydro-2H-indol-2-one] | 158 to 159 °C | – | IC50 (α1 receptor): < 100 nM
6 | CCC1(CCCCN2CCN(c3cccc4c3OCCO4)CC2)C(=O)Nc2ccccc21 (centres unmarked) [Example 63, 3-{4-[4-(2,3-Dihydrobenzo[1,4]dioxin-5-yl)-piperazin-1-yl]-butyl}-3-ethyl-1,3-dihydro-2H-indol-2-one] | 169 to 170 °C | – | IC50 (α1 receptor): < 50 nM
7 | CC(C)CC1(CCCCN2CCN(c3cccc4c3OCCO4)CC2)C(=O)Nc2ccccc21 (centres unmarked) [Example 64, 3-{4-[4-(2,3-Dihydrobenzo[1,4]dioxin-5-yl)-piperazin-1-yl]-butyl}-3-isobutyl-1,3-dihydro-2H-indol-2-one] | 152 to 154 °C | – | IC50 (α1 receptor): < 50 nM
8 | CCC1(CCCCN2CCN(c3ccccc3)CC2)C(=O)Nc2ccccc21 (centres unmarked) [Example 68, 3-[4-(4-Phenylpiperazin-1-yl)-butyl]-3-ethyl-1,3-dihydro-2H-indol-2-one monooxalate] | – | > 200 nM | IC50 (5-HT2C receptor): < 100 nM; minimal effective dose (Male Wistar rats): 10 mg/kg
9 | CCC1(CCCCN2CCN(c3ccccc3OC)CC2)C(=O)Nc2ccccc21 (centres unmarked) [Example 69, 3-Ethyl-3-{4-[4-(2-methoxyphenyl)-piperazin-1-yl]-butyl}-1,3-dihydro-2H-indol-2-one monooxalate] | – | – | minimal effective dose (Male Wistar rats): 10 mg/kg
10 | CCC1(CCCCN2CCN(c3ccccn3)CC2)C(=O)Nc2ccccc21 (centres unmarked) [Example 71, 3-Ethyl-3-[4-(4-pyridin-2-yl-piperazin-1-yl)-butyl]-1,3-dihydro-2H-indol-2-one] | – | – | minimal effective dose (Male Wistar rats): 20 mg/kg
11 | CCC1(CCCCN2CCN(c3cccc(Cl)c3)CC2)C(=O)Nc2ccc(S(N)(=O)=O)cc21 (centres unmarked) [Example 72, 3-{4-[4-(3-Chlorophenyl)-piperazin-1-yl]-butyl}-3-ethyl-1,3-dihydro-2H-indol-2-one 5-sulfonamide monooxalate] | – | > 200 nM | IC50 (5-HT2C receptor): < 100 nM
12 | CC(C)CC1(CCCCN2CCN(c3cccc(Cl)c3)CC2)C(=O)Nc2ccccc21 (centres unmarked) [Example 75, 3-{4-[4-(3-Chlorophenyl)-piperazin-1-yl]-butyl}-3-isobutyl-1,3-dihydro-2H-indol-2-one monohydrochloride] | – | > 200 nM | minimal effective dose (Male Wistar rats): 10 mg/kg
13 | CCC1(CCCCN2CCN(c3cccc(Cl)c3)CC2)C(=O)Nc2c(Cl)cc(Cl)cc21 (centres unmarked) [Example 79, 5,7-Dichloro-3-[4-[4-(3-chlorophenyl)-piperazin-1-yl]-butyl]-3-ethyl-1,3-dihydro-2H-indol-2-one] | 182 to 183 °C | > 400 nM | –
14 | CCC1(CCCCN2CCN(c3ccc(Cl)cc3)CC2)C(=O)Nc2cc(F)ccc21 (centres unmarked) [Example 86, 3-{4-[4-(4-Chlorophenyl)-piperazin-1-yl]-butyl}-3-ethyl-6-fluoro-1,3-dihydro-2H-indol-2-one] | 145 to 147 °C | > 300 nM | –
15 | CCC1(CCCCN2CCN(c3cccc(Cl)c3)CC2)C(=O)Nc2cc(F)c(Cl)cc21 (centres unmarked) [Example 89, 5-Chloro-3-{4-[4-(3-chlorophenyl)-piperazin-1-yl]-butyl}-3-ethyl-6-fluoro-1,3-dihydro-2H-indol-2-one monohydrochloride] | – | > 300 nM | –
16 | CCC1(CCCCN2CCN(c3ccc(Cl)cc3)CC2)C(=O)Nc2ccc(F)cc21 (centres unmarked) [Example 90, 3-{4-[4-(4-Chlorophenyl)-piperazin-1-yl]-butyl}-3-ethyl-5-fluoro-1,3-dihydro-2H-indol-2-one] | 148 to 150 °C | > 300 nM | Effect (%) (Male Mongolian gerbils; change of CA1 cell loss score vs. control, 30 mg/kg i.p.): −38%; CA1 cell loss (score) (Male Mongolian gerbils; 30 mg/kg i.p. 45 min after surgery, scored 4 days after surgery on 6-point scale): 2.73* score
17 | CCC1(CCCCN2CCN(c3ccc(Cl)c(C(F)(F)F)c3)CC2)C(=O)Nc2ccccc21 (centres unmarked) [Example 96, 3-{4-[4-(4-Chloro-3-trifluoromethyl-phenyl)-piperazin-1-yl]-butyl}-3-ethyl-1,3-dihydro-2H-indol-2-one monohydrochloride] | – | > 400 nM | –
